Data from patent publication US20200187499A1, “SUBSTITUTED BENZYL-4-AMINOPICOLINIC ESTERS AND PYRIMIDINO-4-CARBOXYLIC ESTERS, METHODS FOR THE PRODUCTION THEREOF, AND USE THEREOF AS HERBICIDES AND PLANT GROWTH REGULATORS” (Bayer CropScience Aktiengesellschaft, priority 2017, published 2020).

The compounds below were run on ABUTH (assay: Post-emergence herbicidal action). Conditions: Table 6, post-emergence (PO), 320 g/ha, assessed after about 3 weeks.
Format: in vivo
Experimental: (§1) Seeds of monocotyledonous and dicotyledonous weed and crop plants are laid out in sandy loam soil in wood-fiber pots, covered with soil and cultivated in a greenhouse under good growth conditions. 2 to 3 weeks after sowing, the test plants are treated at the one-leaf stage. The compounds of the invention, formulated in the form of wettable powders (WP) or as emulsion concentrates (EC), are then sprayed onto the green parts of the plants in the form of an aqueous suspension or emulsion at a water application rate equating to 600 to 800 l/ha, with addition of 0.2% wetting agent. After the test plants have been left to stand in the greenhouse under optimal growth conditions for about 3 weeks, the action of the preparations is assessed visually in comparison to untreated controls (herbicidal action in percent (%): 100% activity=the plants have died, 0% activity=like control plants). […] At the same time, inventive compounds leave Gramineae crops such as barley, wheat, rye, millet/sorghum, corn or rice virtually undamaged when applied post-emergence, even at high active ingredient dosages. In addition, some substances are also harmless to dicotyledonous crops such as soya, cotton, oilseed rape, sugar beet or potatoes. Some of the compounds according to the invention have high selectivity and are therefore suitable for controlling unwanted vegetation in agricultural crops by the post-emergence method. The tables below illustrate, in an exemplary manner, the post-emergence herbicidal action of the compounds according to the invention, the herbicidal activity being stated in percent.

| SMILES | Herbicidal action against ABUTH [%] |
| --- | --- |
| Nc1cc(-c2ccc3occc3c2)nc(C(=O)OCc2ccc(Cl)cc2)c1Cl [Example I-31] | 100 |
| Nc1c(F)c(-c2ccc3ccsc3c2)nc(C(=O)OCc2ccc(F)cc2F)c1Cl [Example I-42] | 80 |
| Nc1c(F)c(-c2ccc3occc3c2)nc(C(=O)OCc2ccc(Cl)cc2)c1Cl [Example I-47] | 90 |
| Nc1c(F)c(-c2ccc3occc3c2)nc(C(=O)OCc2c(F)cc(F)cc2F)c1Cl [Example I-52] | 80 |

Each compound was assayed on SETVI (assay: Post-emergence herbicidal action). Conditions: Table 6, post-emergence (PO), 320 g/ha, assessed after about 3 weeks.
Format: in vivo
Experimental: as §1

| SMILES | Herbicidal action against SETVI [%] |
| --- | --- |
| Nc1cc(-c2ccc3occc3c2)nc(C(=O)OCc2ccc(Cl)cc2)c1Cl [Example I-31] | 90 |
| Nc1c(F)c(-c2ccc3ccsc3c2)nc(C(=O)OCc2ccc(F)cc2F)c1Cl [Example I-42] | 20 |
| Nc1c(F)c(-c2ccc3occc3c2)nc(C(=O)OCc2ccc(Cl)cc2)c1Cl [Example I-47] | 70 |
| Nc1c(F)c(-c2ccc3occc3c2)nc(C(=O)OCc2c(F)cc(F)cc2F)c1Cl [Example I-52] | 20 |

The compounds below were run on AMARE (assay: Post-emergence herbicidal action). Conditions: Table 6, post-emergence (PO), 320 g/ha, assessed after about 3 weeks.
Format: in vivo
Experimental: as §1

| SMILES | Herbicidal action against AMARE [%] |
| --- | --- |
| Nc1cc(-c2ccc3occc3c2)nc(C(=O)OCc2ccc(Cl)cc2)c1Cl [Example I-31] | 100 |
| Nc1c(F)c(-c2ccc3ccsc3c2)nc(C(=O)OCc2ccc(F)cc2F)c1Cl [Example I-42] | 90 |
| Nc1c(F)c(-c2ccc3occc3c2)nc(C(=O)OCc2ccc(Cl)cc2)c1Cl [Example I-47] | 90 |
| Nc1c(F)c(-c2ccc3occc3c2)nc(C(=O)OCc2c(F)cc(F)cc2F)c1Cl [Example I-52] | 90 |

Each compound was assayed on STEME (assay: Post-emergence herbicidal action). Conditions: Table 6, post-emergence (PO), 320 g/ha, assessed after about 3 weeks.
Format: in vivo
Experimental: as §1

| SMILES | Herbicidal action against STEME [%] |
| --- | --- |
| Nc1cc(-c2ccc3occc3c2)nc(C(=O)OCc2ccc(Cl)cc2)c1Cl [Example I-31] | 100 |
| Nc1c(F)c(-c2ccc3ccsc3c2)nc(C(=O)OCc2ccc(F)cc2F)c1Cl [Example I-42] | 80 |
| Nc1c(F)c(-c2ccc3occc3c2)nc(C(=O)OCc2ccc(Cl)cc2)c1Cl [Example I-47] | 80 |
| Nc1c(F)c(-c2ccc3occc3c2)nc(C(=O)OCc2c(F)cc(F)cc2F)c1Cl [Example I-52] | 80 |

What follows are compounds tested on ABUTH (assay: Pre-emergence herbicidal action). Conditions: Table 3, pre-emergence (PE), 320 g/ha, scored after 3 weeks.
Format: in vivo
From the text: (§2) Seeds of monocotyledonous and dicotyledonous weed plants and crop plants are laid out in sandy loam soil in wood-fiber pots and covered with soil. The compounds of the invention, formulated in the form of wettable powders (WP) or as emulsion concentrates (EC), are then applied to the surface of the covering soil in the form of an aqueous suspension or emulsion at a water application rate equating to 600 to 800 I/ha, with addition of 0.2% wetting agent. After the treatment, the pots are placed in a greenhouse and kept under good growth conditions for the trial plants. The damage to the test plants is scored visually after a test period of 3 weeks by comparison with untreated controls (herbicidal activity in percent (%): 100% activity=the plants have died, 0% activity=like control plants).
(§3) At the same time, inventive compounds leave Gramineae crops such as barley, wheat, rye, millet/sorghum, corn or rice virtually undamaged when applied pre-emergence, even at high active ingredient dosages. In addition, some substances are also harmless to dicotyledonous crops such as soya, cotton, oilseed rape, sugar beet or potatoes. […] The tables below illustrate, in an exemplary manner, the pre-emergence herbicidal action of the compounds according to the invention, the herbicidal activity being stated in percent.

| SMILES | Herbicidal action against ABUTH [%] |
| --- | --- |
| Nc1cc(-c2ccc3occc3c2)nc(C(=O)OCc2ccc(Cl)cc2)c1Cl [Example I-31] | 30 |
| Nc1c(F)c(-c2ccc3ccsc3c2)nc(C(=O)OCc2ccc(F)cc2F)c1Cl [Example I-42] | 0 |
| Nc1c(F)c(-c2ccc3occc3c2)nc(C(=O)OCc2ccc(Cl)cc2)c1Cl [Example I-47] | 20 |
| Nc1c(F)c(-c2ccc3occc3c2)nc(C(=O)OCc2c(F)cc(F)cc2F)c1Cl [Example I-52] | 20 |

These compounds were tested on SETVI (assay: Pre-emergence herbicidal action). Conditions: Table 3, pre-emergence (PE), 320 g/ha, scored after 3 weeks.
Format: in vivo
From the text: as §2, §3

| SMILES | Herbicidal action against SETVI [%] |
| --- | --- |
| Nc1cc(-c2ccc3occc3c2)nc(C(=O)OCc2ccc(Cl)cc2)c1Cl [Example I-31] | 50 |
| Nc1c(F)c(-c2ccc3ccsc3c2)nc(C(=O)OCc2ccc(F)cc2F)c1Cl [Example I-42] | 20 |
| Nc1c(F)c(-c2ccc3occc3c2)nc(C(=O)OCc2ccc(Cl)cc2)c1Cl [Example I-47] | 50 |
| Nc1c(F)c(-c2ccc3occc3c2)nc(C(=O)OCc2c(F)cc(F)cc2F)c1Cl [Example I-52] | 40 |

The compounds below were run on ALOMY (assay: Pre-emergence herbicidal action). Conditions: Table 3, pre-emergence (PE), 320 g/ha, scored after 3 weeks.
Format: in vivo
From the text: as §2, §3

| SMILES | Herbicidal action against ALOMY [%] |
| --- | --- |
| Nc1cc(-c2ccc3occc3c2)nc(C(=O)OCc2ccc(Cl)cc2)c1Cl [Example I-31] | 20 |
| Nc1c(F)c(-c2ccc3ccsc3c2)nc(C(=O)OCc2ccc(F)cc2F)c1Cl [Example I-42] | 30 |
| Nc1c(F)c(-c2ccc3occc3c2)nc(C(=O)OCc2ccc(Cl)cc2)c1Cl [Example I-47] | 60 |
| Nc1c(F)c(-c2ccc3occc3c2)nc(C(=O)OCc2c(F)cc(F)cc2F)c1Cl [Example I-52] | 80 |

These compounds were tested on ECHCG (assay: Pre-emergence herbicidal action). Conditions: Table 3, pre-emergence (PE), 320 g/ha, scored after 3 weeks.
Format: in vivo
From the text: as §2, §3

| SMILES | Herbicidal action against ECHCG [%] |
| --- | --- |
| Nc1cc(-c2ccc3occc3c2)nc(C(=O)OCc2ccc(Cl)cc2)c1Cl [Example I-31] | 30 |
| Nc1c(F)c(-c2ccc3ccsc3c2)nc(C(=O)OCc2ccc(F)cc2F)c1Cl [Example I-42] | 40 |
| Nc1c(F)c(-c2ccc3occc3c2)nc(C(=O)OCc2ccc(Cl)cc2)c1Cl [Example I-47] | 70 |
| Nc1c(F)c(-c2ccc3occc3c2)nc(C(=O)OCc2c(F)cc(F)cc2F)c1Cl [Example I-52] | 30 |

Each compound was assayed on AMARE (assay: Pre-emergence herbicidal action). Conditions: Table 3, pre-emergence (PE), 320 g/ha, scored after 3 weeks.
Format: in vivo
From the text: as §2, §3

| SMILES | Herbicidal action against AMARE [%] |
| --- | --- |
| Nc1cc(-c2ccc3occc3c2)nc(C(=O)OCc2ccc(Cl)cc2)c1Cl [Example I-31] | 90 |
| Nc1c(F)c(-c2ccc3ccsc3c2)nc(C(=O)OCc2ccc(F)cc2F)c1Cl [Example I-42] | 100 |
| Nc1c(F)c(-c2ccc3occc3c2)nc(C(=O)OCc2ccc(Cl)cc2)c1Cl [Example I-47] | 100 |
| Nc1c(F)c(-c2ccc3occc3c2)nc(C(=O)OCc2c(F)cc(F)cc2F)c1Cl [Example I-52] | 80 |
